Converted amounts (≈) assume the structure as drawn.
Experiments:
Assay type in all cases: functional
Staphylococcus aureus = test: Antibacterial activity against Staphylococcus aureus
Aspergillus fumigatus = test: Antifungal activity against Aspergillus fumigatus
Cryptococcus neoformans = test: Antifungal activity against Cryptococcus neoformans

MIC (Staphylococcus aureus): 3.2 µg/mL (≈ 9.93 µM)
MIC (Aspergillus fumigatus): 50 µg/mL (≈ 155 µM)
MIC (Cryptococcus neoformans): 50 µg/mL (≈ 155 µM)
Compound: CC(C)=CCc1cc(-c2coc3cc(O)ccc3c2=O)ccc1O [NEOBAVAISOFLAVONE]

Source: ChEMBL document CHEMBL1148050, “Sigmoidins J and K, two new prenylated isoflavonoids from Erythrina sigmoidea” (1994)
